The source made the active and inactive calls. The rule behind the calls is not given here.
Experiments:
Format in all cases: cell-based
[1] = target: T1, Peroxisome proliferator-activated receptor gamma (Homo sapiens) (UniProt P37231); assay: Induction of PPARgamma enhancer activity in human THP1 cells after 24 hrs by luciferase reporter gene analysis; details: THP-1
T1 sequence (whole entry): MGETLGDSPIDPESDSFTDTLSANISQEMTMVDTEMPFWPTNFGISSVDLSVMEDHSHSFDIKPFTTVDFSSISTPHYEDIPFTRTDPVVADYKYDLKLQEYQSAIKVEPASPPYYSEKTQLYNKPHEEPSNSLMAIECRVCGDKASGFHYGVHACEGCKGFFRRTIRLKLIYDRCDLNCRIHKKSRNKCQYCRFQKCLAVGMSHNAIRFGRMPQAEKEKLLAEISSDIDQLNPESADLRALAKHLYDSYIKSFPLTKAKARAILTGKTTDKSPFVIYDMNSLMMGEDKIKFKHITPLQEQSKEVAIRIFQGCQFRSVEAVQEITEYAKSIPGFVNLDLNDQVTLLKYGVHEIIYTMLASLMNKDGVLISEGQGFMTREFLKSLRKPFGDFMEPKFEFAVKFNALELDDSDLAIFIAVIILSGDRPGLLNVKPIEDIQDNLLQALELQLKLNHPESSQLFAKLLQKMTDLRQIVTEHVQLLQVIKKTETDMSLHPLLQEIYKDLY

[2] = target: T2, Oxysterols receptor LXR-alpha (Homo sapiens) (UniProt Q13133); assay: Increase in LXRalpha-mediated ABCA1 protein expression in human THP1 cells at 5 to 15 uM after 48 hrs by Western blotting analysis; details: THP-1
T2 sequence (whole entry): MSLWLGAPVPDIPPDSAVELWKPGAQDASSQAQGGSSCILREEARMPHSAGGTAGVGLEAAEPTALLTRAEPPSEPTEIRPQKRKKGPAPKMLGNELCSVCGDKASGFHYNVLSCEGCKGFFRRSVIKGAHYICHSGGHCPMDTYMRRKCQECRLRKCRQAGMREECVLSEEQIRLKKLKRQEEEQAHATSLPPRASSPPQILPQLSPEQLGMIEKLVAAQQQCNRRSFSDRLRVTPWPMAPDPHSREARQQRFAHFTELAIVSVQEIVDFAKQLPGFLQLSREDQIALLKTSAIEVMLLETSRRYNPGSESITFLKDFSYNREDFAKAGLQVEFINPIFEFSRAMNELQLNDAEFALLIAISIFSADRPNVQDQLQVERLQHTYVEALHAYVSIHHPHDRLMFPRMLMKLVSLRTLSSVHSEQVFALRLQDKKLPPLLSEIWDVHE

[3] = target: T2, Oxysterols receptor LXR-alpha (Homo sapiens); assay: Increase in LXRalpha-mediated ABCA1 mRNA expression in human THP1 cells at 5 to 15 uM after 24 hrs by RT-PCR analysis; details: THP-1
THP-1 = assay: Cytotoxicity against human THP1 cells up to 100 uM after 24 hrs by WST8 assay; details: thp-1, 24 h
[4] = target: T1, Peroxisome proliferator-activated receptor gamma (Homo sapiens); assay: Induction of PPARgamma-mediated ABCA1 promoter activity in human THP1 cells after 24 hrs by luciferase reporter gene analysis; details: THP-1
[5] = target: T2, Oxysterols receptor LXR-alpha (Homo sapiens); assay: Induction of LXRalpha-mediated ABCA1 promoter activity in human THP1 cells after 24 hrs by luciferase reporter gene analysis; details: THP-1
[6] = target: T2, Oxysterols receptor LXR-alpha (Homo sapiens); assay: Induction of LXRalpha enhancer activity in human THP1 cells after 24 hrs by luciferase reporter gene analysis; details: THP-1

Activity [1]: Dose-dependent effect
Activity [2]: Active
Activity [3]: Active
Activity [4]: Active
Activity [5]: Active
Activity [6]: Dose-dependent effect
SMILES: COc1ccc([C@@H]2CC(=O)c3c(O)cc(O)cc3O2)cc1O [HESPERETIN]
Activity (THP-1): Non-toxic

— ChEMBL document CHEMBL2034959, “Hesperetin upregulates ABCA1 expression and promotes cholesterol efflux from THP-1 macrophages” (J Nat Prod, 2012)
